Reference: article PMC7464559, “Synthesis, Optimization, Antifungal Activity, Selectivity, and CYP51 Binding of New 2-Aryl-3-azolyl-1-indolyl-propan-2-ols” (Pharmaceuticals, 2020)
Converted amounts (≈) assume the structure as drawn.

How the values were obtained:
[1] = system: ATCC6258 Candida krusei strain; assay: Anti-Candida in vitro assay, ATCC6258; assay type: cell-based; settings: Pichia kudriavzevii; Candida krusei ATCC6258, mean of triplicate; read-out: MIC (IC80) ATCC6258
Experimental: (§1) Test fungal strains were obtained from the American Type Culture Collection (ATCC) or were clinical isolates from the Laboratory of Parasitology and Medical Mycology, Centre Hospitalier Universitaire (CHU) of Nantes. The strains were maintained on Sabouraud agar slants and were subcultured 24 h before used. The activity of the target compounds 8a–g and 11a–m was determined by the method previously described. Briefly, molecules were diluted in RPMI 1640 medium supplemented with 0.165 M morpholinopropanesulphonic acid (Sigma-Aldrich, Saint-Quentin Fallavier, France), 2% glucose, and antibiotics. Candida suspensions were prepared in RPMI 1640 medium (Sigma-Aldrich, Saint-Quentin Fallavier, France) adjusted to give a final concentration of 10^3 cells/mL, and a 96-well microplate (Nunc, D. Dutscher, Brumath, France) was seeded with 100 µL. Each concentration of molecules (100 µL) to be tested was added (in triplicate) and plates were incubated at 37 °C for 24 h. The cellular viability was evaluated on the Fluorolite 1000 (Dynatech, France) with an excitation at 550 nm and an emission at 590 nm after a 4 h incubation with 10 µL of Alamar Blue®. […] MIC was expressed as the mean of the triplicate values. KTC and FLC were used as standards.

[2] = system: CA98005 (Candida albicans); assay: Anti-Candida in vitro assay, CA98005; assay type: cell-based; settings: Candida albicans CA98005, mean of triplicate; read-out: MIC (IC80) CA98005
Experimental: as §1

CK98003 (Candida krusei) = assay: Anti-Candida in vitro assay, CK98003; assay type: cell-based; settings: Pichia kudriavzevii; Candida krusei CK98003, mean of triplicate; read-out: MIC (IC80) CK98003
Experimental: as §1

[3] = system: CL98001 (Candida lusitaniae); assay: Anti-Candida in vitro assay, CL98001; assay type: cell-based; settings: Clavispora lusitaniae; Candida lusitaniae CL98001, mean of triplicate; read-out: MIC (IC80) CL98001
Experimental: as §1

CK98002 (Candida krusei) = assay: Anti-Candida in vitro assay, CK98002; assay type: cell-based; settings: Pichia kudriavzevii; Candida krusei CK98002, mean of triplicate; read-out: MIC (IC80) CK98002
Experimental: as §1

MRC5 toxicity assay = assay type: cell-based, human; settings: human, MRC-5 human fetal lung fibroblast cells, MRC-5 cells, 96-h incubation, mean of triplicate; read-out: Cytotoxicity IC50 on MRC-5 cells
Experimental: The cytotoxicity of compounds was studied with human fibroblast (MRC5). Cells were grown in RPMI 1640 medium (Sigma-Aldrich, Saint-Quentin Fallavier, France) supplemented with 10% fetal bovin serum (Sigma–Aldrich). Drugs were tested at three concentrations (100, 10, and 1 µM) in triplicate. After a 96-h incubation time, cytotoxicity was measured on the Fluorolite 1000 (Dynatech, Guyancourt, France) after a 4-h incubation time with Uptiblue® (Interchim, Montluçon, France). Inhibitory concentration 50 is a mean of triplicate values. A toxicity index was determined as follow: IC50 against MRC5/Geometric mean of the MICs against Candida spp..

C. albicans CA98001 = assay: Anti-Candida in vitro assay (Alamar Blue), C. albicans CA98001; assay type: cell-based; settings: for MIC: Candida albicans, CA98001, 24 h
Experimental: as §1

[4] = system: ATCC2091 Candida albicans strain; assay: Anti-Candida in vitro assay, ATCC2091; assay type: cell-based; settings: Candida albicans ATCC2091, mean of triplicate; read-out: MIC (IC80) ATCC2091
Experimental: as §1

[5] = system: ATCC90018 Candida parapsilosis strain; assay: Anti-Candida in vitro assay, ATCC90018; assay type: cell-based; settings: Lodderomyces parapsilosis; Candida parapsilosis ATCC90018, mean of triplicate; read-out: MIC (IC80) ATCC90018
Experimental: as §1

[6] = system: CA98002 (Candida albicans); assay: Anti-Candida in vitro assay, CA98002; assay type: cell-based; settings: Candida albicans CA98002, mean of triplicate; read-out: MIC (IC80) CA98002
Experimental: as §1

[7] = MIC = IC80, 24 h at 37 °C, mean of triplicate

Structure (SMILES)	MIC [1] [µg/mL]	MIC [2] [µg/mL]	melting point [°C]	MIC (CK98003 (Candida krusei)) [µg/mL]	MIC [3] [µg/mL]	MIC (CK98002 (Candida krusei)) [µg/mL]	MIC (C. albicans CA98001; [7]) [µg/mL]	MIC [4] [µg/mL]	MIC [5] [µg/mL]	MIC [6] [µg/mL]	MIC (= IC80) C. albicans CA98001 (C. albicans CA98001; [7]) [µg/mL]	IC50 at 96 h (MRC5 toxicity assay) [µM]	Times more active than FLC against C. albicans CA98001 (C. albicans CA98001; ratio of MIC values versus FLC)
OC(Cn1ccnc1)(Cn1ccc2ccccc21)c1ccc(F)cc1 (stereo not drawn) [Compound 8a, 2-(4-Fluorophenyl)-1-(1H-imidazol-1-yl)-3-(1H-indol-1-yl)propan-2-ol]	> 33.5	0.148 (≈ 0.441 µM)	166 to 167	28.6 (≈ 85.3 µM)	0.231 (≈ 0.689 µM)	12.8 (≈ 38 µM)	0.03 (≈ 0.0895 µM)	0.131 (≈ 0.391 µM)	2.11 (≈ 6.29 µM)	0.205 (≈ 0.611 µM)		50	
OC(Cn1ccnc1)(Cn1ccc2ccccc21)c1ccc(Cl)cc1 (stereo not drawn) [Compound 8b, 2-(4-Chlorophenyl)-1-(1H-imidazol-1-yl)-3-(1H-indol-1-yl)propan-2-ol]	> 35.2	0.106 (≈ 0.301 µM)	201 to 202	> 35.2	0.222 (≈ 0.631 µM)	2.72 (≈ 7.74 µM)	0.02 (≈ 0.0568 µM)	0.215 (≈ 0.611 µM)	1.3 (≈ 3.69 µM)	0.165 (≈ 0.469 µM)		37	
OC(Cn1ccnc1)(Cn1ccc2ccccc21)c1ccc(Br)cc1 (stereo not drawn) [Compound 8c, 2-(4-Bromophenyl)-1-(1H-imidazol-1-yl)-3-(1H-indol-1-yl)propan-2-ol]	> 39.6	0.21 (≈ 0.53 µM)	134 to 135	36.6 (≈ 92.3 µM)	0.25 (≈ 0.631 µM)	5.08 (≈ 12.8 µM)	0.02 (≈ 0.0505 µM)	0.357 (≈ 0.901 µM)	1.84 (≈ 4.64 µM)	0.25 (≈ 0.631 µM)		31	
OC(Cn1ccnc1)(Cn1ccc2ccccc21)c1ccc(F)cc1F (stereo not drawn) [Compound 8d, 2-(2,4-Difluorophenyl)-1-(1H-imidazol-1-yl)-3-(1H-indol-1-yl)propan-2-ol]	3.86 (≈ 10.9 µM)	0.439 (≈ 1.24 µM)	166 to 168	5.21 (≈ 14.7 µM)	0.068 (≈ 0.192 µM)	5.69 (≈ 16.1 µM)	0.00035 (≈ 0.00099 µM)	0.726 (≈ 2.05 µM)	0.614 (≈ 1.74 µM)	0.609 (≈ 1.72 µM)		34	57
OC(Cn1ccnc1)(Cn1ccc2ccccc21)c1ccc(Cl)cc1Cl (stereo not drawn) [Compound 8e, 2-(2,4-Dichlorophenyl)-1-(1H-imidazol-1-yl)-3-(1H-indol-1-yl)propan-2-ol]	1.2 (≈ 3.11 µM)	0.274 (≈ 0.709 µM)	212 to 213	0.28 (≈ 0.725 µM)	0.116 (≈ 0.3 µM)	1.8 (≈ 4.66 µM)	0.062 (≈ 0.161 µM)	0.19 (≈ 0.492 µM)	0.24 (≈ 0.621 µM)	0.251 (≈ 0.65 µM)		31	
OC(Cn1cncn1)(Cn1ccc2ccccc21)c1ccc(C(F)(F)F)cc1 (stereo not drawn) [Compound 8f, 1-(1H-Indol-1-yl)-3-(1,2,4-1H-triazol-1-yl)-2-(4-trifluoromethyl-phenyl)propan-2-ol]	19.1 (≈ 49.4 µM)	0.749 (≈ 1.94 µM)	165 to 168	3.07 (≈ 7.94 µM)	0.199 (≈ 0.515 µM)	10.6 (≈ 27.3 µM)	0.009 (≈ 0.0233 µM)	0.247 (≈ 0.639 µM)	2 (≈ 5.18 µM)	0.233 (≈ 0.603 µM)		76	

Further lines, with some results ahead:

MIC [1] [µg/mL]	MIC [2] [µg/mL]	melting point [°C]	MIC (CK98003 (Candida krusei)) [µg/mL]	MIC [3] [µg/mL]	MIC (CK98002 (Candida krusei)) [µg/mL]	MIC (C. albicans CA98001; [7]) [µg/mL]	MIC [4] [µg/mL]	MIC [5] [µg/mL]	MIC [6] [µg/mL]	MIC (= IC80) C. albicans CA98001 (C. albicans CA98001; [7]) [µg/mL]	Structure (SMILES)	IC50 at 96 h (MRC5 toxicity assay) [µM]	Times more active than FLC against C. albicans CA98001 (C. albicans CA98001; ratio of MIC values versus FLC)
19.2 (≈ 57.2 µM)	0.437 (≈ 1.3 µM)	190 to 191	18.7 (≈ 55.5 µM)	0.259 (≈ 0.77 µM)	21.4 (≈ 63.7 µM)	0.21 (≈ 0.624 µM)	0.437 (≈ 1.3 µM)	2.52 (≈ 7.5 µM)	0.404 (≈ 1.2 µM)	0.21 (≈ 0.624 µM)	OC(Cn1cncn1)(Cn1ccc2ccccc21)c1ccc(F)cc1 (stereo not drawn) [Compound 11a, 2-(4-Fluorophenyl)-3-(1H-indol-1-yl)-1-(1H-1,2,4-triazol-1-yl)propan-2-ol]	> 100	
2.43 (≈ 6.9 µM)	0.222 (≈ 0.629 µM)	188 to 189	2.43 (≈ 6.9 µM)	0.208 (≈ 0.59 µM)	12.7 (≈ 35.9 µM)	0.024 (≈ 0.068 µM)	0.258 (≈ 0.731 µM)	2.05 (≈ 5.8 µM)	0.261 (≈ 0.74 µM)		OC(Cn1cncn1)(Cn1ccc2ccccc21)c1ccc(Cl)cc1 (stereo not drawn) [Compound 11b, 2-(4-Chlorophenyl)-3-(1H-indol-1-yl)-1-(1H-1,2,4-triazol-1-yl)propan-2-ol]	> 100	
1.51 (≈ 3.8 µM)	0.286 (≈ 0.72 µM)	186 to 187	2.5 (≈ 6.3 µM)	0.215 (≈ 0.541 µM)	2.46 (≈ 6.2 µM)	0.027 (≈ 0.068 µM)	0.477 (≈ 1.2 µM)	2.03 (≈ 5.1 µM)	0.338 (≈ 0.851 µM)		OC(Cn1cncn1)(Cn1ccc2ccccc21)c1ccc(Br)cc1 (stereo not drawn) [Compound 11c, 2-(4-Bromophenyl)-3-(1H-indol-1-yl)-1-(1H-1,2,4-triazol-1-yl)propan-2-ol]	38	
22.1 (≈ 57.4 µM)	0.258 (≈ 0.669 µM)	246 to 247	16.2 (≈ 42.1 µM)	0.173 (≈ 0.449 µM)	18.3 (≈ 47.5 µM)	0.23 (≈ 0.597 µM)	2.12 (≈ 5.5 µM)	2.47 (≈ 6.4 µM)	0.32 (≈ 0.83 µM)		OC(Cn1ccnc1)(Cn1ccc2ccccc21)c1ccc(C(F)(F)F)cc1 (stereo not drawn) [Compound 11e, 1-(1H-Imidazol-1-yl)-3-(1H-indol-1-yl)-2-(4-trifluoromethylphenyl)propan-2-ol]	36	
17.6 (≈ 47.7 µM)	0.516 (≈ 1.4 µM)	125 to 126	5.45 (≈ 14.8 µM)	0.232 (≈ 0.63 µM)	7.59 (≈ 20.6 µM)	0.022 (≈ 0.0597 µM)	0.199 (≈ 0.54 µM)	2.5 (≈ 6.8 µM)	0.302 (≈ 0.82 µM)		Cc1cc2ccccc2n1CC(O)(Cn1cncn1)c1ccc(F)cc1F (stereo not drawn) [Compound 11f, 2-(2,4-Difluorophenyl)-3-(2-methyl-1H-indol-1-yl)-1-(1H-1,2,4-triazol-1-yl)propan-2-ol]	~190	
> 40	0.269 (≈ 0.67 µM)	170 to 171	> 40	0.181 (≈ 0.451 µM)	> 40	0.0058 (≈ 0.0145 µM)	0.526 (≈ 1.31 µM)	> 40	0.321 (≈ 0.8 µM)		Cc1cc2ccccc2n1CC(O)(Cn1cncn1)c1ccc(Cl)cc1Cl (stereo not drawn) [Compound 11g, 2-(2,4-Dichlorophenyl)-3-(2-methyl-1H-indol-1-yl)-1-(1H-1,2,4-triazol-1-yl)propan-2-ol]	157	
1.4 (≈ 3.8 µM)	0.265 (≈ 0.719 µM)	112 to 113	0.7 (≈ 1.9 µM)	0.023 (≈ 0.0624 µM)	0.81 (≈ 2.2 µM)		0.136 (≈ 0.369 µM)	0.309 (≈ 0.839 µM)	0.033 (≈ 0.0896 µM)		Cc1cn(CC(O)(Cn2cncn2)c2ccc(F)cc2F)c2ccccc12 (stereo not drawn) [Compound 11h, 2-(2,4-Difluorophenyl)-3-(3-methyl-1H-indol-1-yl)-1-(1H-1,2,4-triazol-1-yl)propan-2-ol]	105	
3.01 (≈ 7.5 µM)	0.03 (≈ 0.0748 µM)	161 to 162	1.69 (≈ 4.2 µM)	0.025 (≈ 0.0623 µM)	0.803 (≈ 2 µM)	0.007 (≈ 0.0174 µM)	0.026 (≈ 0.0648 µM)	0.245 (≈ 0.611 µM)	0.044 (≈ 0.11 µM)		Cc1cn(CC(O)(Cn2cncn2)c2ccc(Cl)cc2Cl)c2ccccc12 (stereo not drawn) [Compound 11i, 2-(2,4-Dichlorophenyl)-3-(3-methyl-1H-indol-1-yl)-1-(1H-1,2,4-triazol-1-yl)propan-2-ol]	19	
		210 to 211				> 100					OC(Cn1ccnn1)(Cn1ccc2ccccc21)c1ccc(Cl)cc1Cl (stereo not drawn) [Compound 11l, 2-(2,4-Dichlorophenyl)-3-(1H-indol-1-yl)-1-(1H-1,2,3-triazol-1-yl)propan-2-ol]		
		159 to 161				> 100					OC(Cn1nccn1)(Cn1ccc2ccccc21)c1ccc(Cl)cc1Cl (stereo not drawn) [Compound 11m, 2-(2,4-Dichlorophenyl)-3-(1H-indol-1-yl)-1-(2H-1,2,3-triazol-2-yl)propan-2-ol]		
